According to article PMC2680092 (Journal of molecular biology, 2008):
Like-named read-outs stand apart in the source and are kept apart here.

Target: DEN MTase (Dengue virus type 2, UniProt P29990)
Test: GTP-Bodipy displacement
Format: binding
Details: for Fold Affinity Reduction: Ki relative to GTP
[1] = 10 nM GTP-Bodipy, 500 nM DEN MTase

DEN MTase, sequence (P29990 2493-2755 limits assumed): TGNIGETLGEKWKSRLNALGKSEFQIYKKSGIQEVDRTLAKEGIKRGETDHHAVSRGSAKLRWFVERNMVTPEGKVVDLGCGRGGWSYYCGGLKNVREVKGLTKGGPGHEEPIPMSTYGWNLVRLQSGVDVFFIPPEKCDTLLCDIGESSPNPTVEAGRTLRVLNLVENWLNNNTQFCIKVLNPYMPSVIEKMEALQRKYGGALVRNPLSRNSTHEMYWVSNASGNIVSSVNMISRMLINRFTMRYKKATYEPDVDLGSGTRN

O=c1[nH]cnc2c1ncn2[C@@H]1O[C@H](COP(=O)(O)OP(=O)(O)OP(=O)(O)O)[C@@H](O)[C@H]1O [ITP, Inosine triphosphate]
Ki [1]: 120 nM | Fold Affinity Reduction: 3

Cn1c[n+]([C@@H]2O[C@H](COP(=O)(O)OP(=O)(O)OP(=O)(O)OC[C@H]3O[C@@H](n4cnc5c(N)ncnc54)[C@H](O)[C@@H]3O)[C@@H](O)[C@H]2O)c2nc(N)[nH]c(=O)c21 [^7meGpppA]
Ki [1]: 170 nM

Nc1nc2c(ncn2[C@H]2CC[C@@H](COP(=O)(O)OP(=O)(O)OP(=O)(O)O)O2)c(=O)[nH]1 [ddGTP]
Ki [1]: 770 nM | Fold Affinity Reduction: 19

Nc1nc2c(ncn2[C@H]2C[C@H](O)[C@@H](COP(=O)(O)OP(=O)(O)OP(=O)(O)O)O2)c(=O)[nH]1 [dGTP]
Ki [1]: 610 nM | Fold Affinity Reduction: 15

Nc1nc2c(ncn2[C@@H]2O[C@H](CO)[C@@H](O)[C@H]2O)c(=O)[nH]1 [Guanosine, guanosine]
Ki: 260000 nM | Fold Affinity Reduction: 6400

Nc1nc2c(ncn2[C@@H]2O[C@H](COP(=O)(O)OP(=O)(O)OP(=O)(O)O)[C@@H](O)[C@H]2O)c(=O)[nH]1 [GTP, guanosine triphosphate]
Ki: 40 nM | Fold Affinity Reduction: 0

O=c1[nH]c(=O)c2ncn([C@@H]3O[C@H](COP(=O)(O)OP(=O)(O)OP(=O)(O)O)[C@@H](O)[C@H]3O)c2[nH]1 [XTP, xanthine triphosphate]
Ki [1]: 480 nM | Fold Affinity Reduction: 12

Nc1nc2c(ncn2[C@@H]2O[C@H](COP(=O)(O)OP(=O)(O)O)[C@@H](O)[C@H]2O)c(=O)[nH]1 [GDP]
Ki [1]: 100 nM | Fold Affinity Reduction: 3

CSc1nc(N)nc2c1ncn2C1OC(COP(=O)(O)OP(=O)(O)OP(=O)(O)O)C(O)C1O (centres unmarked) [6-methylthio GTP, 6-methylthio-GTP]
Ki [1]: 230 nM

Cn1c[n+]([C@@H]2O[C@H](COP(=O)(O)OP(=O)(O)OP(=O)(O)OC[C@H]3O[C@@H](n4cnc5c(=O)[nH]c(N)nc54)[C@H](O)[C@@H]3O)[C@@H](O)[C@H]2O)c2nc(N)[nH]c(=O)c21 [^7meGpppG]
Ki [1]: 100 nM

Nc1nc2c(ncn2[C@@H]2O[C@H](COP(=O)(O)O)[C@@H](O)[C@H]2O)c(=O)[nH]1 [GMP]
Ki [1]: 950 nM

Nc1ncnc2c1ncn2[C@@H]1O[C@H](COP(=O)(O)OP(=O)(O)OP(=O)(O)O)[C@@H](O)[C@H]1O [ATP, Adenosine triphosphate]
Ki: 350000 nM | Fold Affinity Reduction: 8750
